How the values were obtained:
[1] = target: T1, serotonin 1A receptor (Rattus norvegicus, UniProt P19327); assay: Binding test on [3H] 8-hydroxy-dipropylaminotetralin (serotonin 1A receptor); details: [3H] 8-OH-DPAT 0.5 nM, receptor fraction of rat hippocampus; read-out: 5HT1a
T1 construct: To the receptor fraction of the hippocampus were added a test compound and 0.5 nM of [^3H]; 8-hydroxy-dipropylaminotetralin; from tissue; host or cells: SD rat hippocampus, membrane (receptor) fraction
T1 sequence (P19327 1-422): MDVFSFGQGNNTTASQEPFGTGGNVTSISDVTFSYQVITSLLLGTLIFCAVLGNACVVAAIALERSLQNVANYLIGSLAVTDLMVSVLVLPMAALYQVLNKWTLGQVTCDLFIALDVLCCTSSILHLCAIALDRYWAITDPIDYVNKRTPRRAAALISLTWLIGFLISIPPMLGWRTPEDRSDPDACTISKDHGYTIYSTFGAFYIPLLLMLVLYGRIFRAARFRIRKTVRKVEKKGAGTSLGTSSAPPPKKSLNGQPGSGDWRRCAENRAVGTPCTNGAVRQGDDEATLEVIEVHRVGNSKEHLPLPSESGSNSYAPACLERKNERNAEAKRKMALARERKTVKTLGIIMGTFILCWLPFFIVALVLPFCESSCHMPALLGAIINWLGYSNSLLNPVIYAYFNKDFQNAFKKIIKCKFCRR

[2] = target: serotonin 2 receptor (Rattus norvegicus, UniProt P14842); assay: Binding test on [3H] ketanserin (serotonin 2 receptor); details: [3H] ketanserin 0.3 nM, receptor fraction of rat cerebral cortex; read-out: 5HT2
serotonin 2 receptor, sequence (P14842 whole entry): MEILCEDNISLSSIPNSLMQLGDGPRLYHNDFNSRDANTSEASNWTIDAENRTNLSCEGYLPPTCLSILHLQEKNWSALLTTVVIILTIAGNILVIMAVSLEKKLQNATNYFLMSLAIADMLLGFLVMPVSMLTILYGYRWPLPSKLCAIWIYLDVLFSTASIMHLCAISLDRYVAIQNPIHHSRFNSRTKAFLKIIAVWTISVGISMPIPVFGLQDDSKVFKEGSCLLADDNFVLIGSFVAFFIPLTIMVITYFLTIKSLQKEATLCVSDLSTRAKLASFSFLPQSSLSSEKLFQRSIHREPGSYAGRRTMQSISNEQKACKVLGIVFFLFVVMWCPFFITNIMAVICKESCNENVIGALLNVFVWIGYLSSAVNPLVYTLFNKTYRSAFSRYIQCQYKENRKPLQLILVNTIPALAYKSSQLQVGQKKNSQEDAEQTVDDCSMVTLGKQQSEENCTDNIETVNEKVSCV
Description: Use was made of SD rats aged 6 to 8 weeks.
The rats were sacrificed by dcapitation to extirpate the cerebra.
The hippocampus was mixed with 50 times (on the wet weight basis) as much a 0.32 M sucrose solution while the cortex was mixed with 10 times as much the same solution. Each mixture was homogenized by using a Teflon glass homogenizer and centrifuged at 1,000×g for 10 min. The supernatant thus obtained was further centrifuged at 20,000×g for 20 min. The obtained precipitate was re-suspended in 50 times (based on the intial wet weight; in the case of the hippocampus) or 10 times (in the case of the cortex) as much a 50 mM Tris hydrochloride (pH 7.4) and incubated at room temperature for 30 min. After centrifuging at 20,000×g for 20 min, the obtained precipitate was further suspended and centrifuged twice each in the same manner. The precipitate thus obtained was suspended in 100 times (based on the initial wet weight; in the case of the hippocampus) or 20 times (in the case of the cortex) as much a 50 mM Tris hydrochloride solution (pH 7.4) to thereby give a receptor fraction. This receptor fraction was stored at −80° C. until using.
(Binding Test on [^3H] Ketanserin)
Next, it was filtered through a glass filter with the use of a cell harvester. After washing the glass filter with 50 mM Tris hydrochloride (pH 7.4), the radioactivity of the receptor was measured with a liquid scintillation counter. The binding detected in the presence of 1 μM of methysergide was referred to as the nonspecific binding.
IC50 was calculated by the probit method, while Ki was determined in accordance with the following formula:
wherein c represents the concentration of the radioisotope-labeled compound, and Kd represents the dissociation constant of the radioisotope-labeled compound with respect to the receptor determined by Scatchard's analysis.

Row | Compound | Ki [1] [nM] | Ki [2] [nM]
1 | O=S(=O)(NCCN1CCC(N2CCc3ccccc32)CC1)c1ccc(Cl)cc1 [Example 47, 1-{1-[2-(4-chlorophenylsulfonylamino)ethyl]piperidin-4-yl}indoline] | 206 | 92.3
2 | COc1ccc(S(=O)(=O)NCCN2CCC(N3CCc4ccccc43)CC2)cc1 [Example 48, 1-{1-[2-(4-methoxyphenylsulfonylamino)ethyl]piperidin-4-yl}indoline] | 15.3 | 35
3 | c1ccc2c(c1)CCN2C1CCN(CCc2ccncc2)CC1 [Example 49, 1-{1-[2-(4-pyridyl)ethyl]piperidin-4-yl}indoline] | 54.5 | 29.9
4 | c1ccc(CCN2CCC(N3CCc4ccccc43)CC2)nc1 [Example 50, 1-{1-[2-(2-pyridyl)ethyl]piperidin-4-yl}indoline] | 31.2 | 52.2
5 | COc1ccc(CCN2CCC(N3CCc4ccccc43)CC2)cn1 [Example 52, 1-{1-[2-(2-methoxy-5-pyridyl)ethyl]piperidin-4-yl}indoline] | 2.5 | 5.6
6 | COc1cncc(CCN2CCC(N3CCc4ccccc43)CC2)c1 [Example 53, 1-{1-[2-(3-methoxypyridin-5-yl)ethyl]piperidin-4-yl}indoline] | 21.5 | 2.1
7 | N#Cc1ccc(CCN2CCC(N3CCc4ccccc43)CC2)cn1 [Example 54, 1-{1-[2-(2-cyanopyridin-5-yl)ethyl]piperidin-4-yl}indoline] | 7.1 | 10.3
8 | OCc1ccc(CCN2CCC(N3CCc4ccccc43)CC2)cn1 [Example 55, 1-{1-[2-(2-hydroxymethylpyridin5-yl)ethyl]piperidin-4-yl}indoline] | 41.9 | 17.8
9 | OCc1cncc(CCN2CCC(N3CCc4ccccc43)CC2)c1 [Example 56, 1-{1-[2-(3-hydroxymethylpyridin-5-yl)ethyl]piperidin-4-yl}indoline] | 20.7 | 1.7
10 | Fc1ccc(CCN2CCC(N3CCc4ccccc43)CC2)c(F)n1 [Example 57, 1-[1-(2,6-difluoro-3-pyridylethyl)piperidin-4-yl]indoline] | 14.6 | 1.1
11 | c1csc(CCN2CCC(N3CCc4ccccc43)CC2)c1 [Example 58, 1-{1-[2-(2-thienyl)ethyl]piperidin-4-yl}indoline] | 26.2 | 34.8
12 | c1ccc2c(c1)CCN2C1CCN(CCc2ccsc2)CC1 [Example 59, 1-{1-[2-(3-thienyl)ethyl]piperidin-4-yl}indoline] | 12 | 28.9
13 | c1ccc2c(c1)CCN2C1CCN(CCc2nccs2)CC1 [Example 60, 1-[1-(2-thiazolylethyl)piperidin-4-yl]indoline] | 60.8 | > 200
14 | Cc1ncsc1CCN1CCC(N2CCc3ccccc32)CC1 [Example 61, 1-[1-(4-methyl-5-thiazolethyl)piperidin-4-yl]indoline] | 5 | 12.5
15 | c1ccc2c(c1)CCN2C1CCN(CCc2c[nH]c3ccccc23)CC1 [Example 62, 1-{1-[(indol-3-yl)ethyl]-piperidin-4-yl}indoline] | 6.2 | 7.4
16 | c1ccc2c(c1)CCN2C1CCN(CCc2ccc3ncsc3c2)CC1 [Example 63, 1-{1-[2-(6-benzothiazolyl)ethyl]piperidin-4-yl}indoline] | 3.2 | 1.2
17 | COc1ccc(CCN2CCC(N3CCc4ccccc43)CC2)s1 [Example 64] | 14.8 | 14.2
18 | N#Cc1ncc(CCN2CCC(N3CCc4ccccc43)CC2)s1 [Example 66] | 50.9 | 85

Row | Compound | Ki [1] [nM] | Ki [2] [nM]
19 | c1ccc2c(c1)CCN2C1CCN(CCc2cnccn2)CC1 [Example 67, 1-(1-pyrazinylethylpiperidin-4-yl)indoline] | 263 | 27.1
20 | Brc1cnn(CCN2CCC(N3CCc4ccccc43)CC2)c1 [Example 68, 1-{1-[2-(4-bromopyrazol-1-yl)ethyl]piperidin-4-yl}indoline] | 47.2 | 39.5
21 | Fc1ccc(OCCCN2CCC(N3CCc4ccccc43)CC2)cc1 [Example 69, 1-{1-[3-(4-fluorophenoxy)propyl]piperidin-4-yl}indoline] | 9.7 | 29.9
22 | OCc1ccc(OCCCN2CCC(N3CCc4ccccc43)CC2)cc1 [Example 70, 1-{1-[3-(4-hydroxymethylphenoxy)propyl]piperidin-4-yl}indoline] | 41.9 | 27.6
23 | OCCc1ccc(OCCCN2CCC(N3CCc4ccccc43)CC2)cc1 [Example 71, 1-{1-[3-(4-hydroxyethylphenoxy)propyl]piperidin-4-yl}indoline] | 25.4 | 28.2
24 | O=C(CCCN1CCC(N2CCc3ccccc32)CC1)c1ccc(F)cc1 [Example 72, 1-{1-[4-(4-fluorophenyl)-4-oxobutyl]piperidin-4-yl}indoline] | 25.9 | 21.1
25 | OC(CCCN1CCC(N2CCc3ccccc32)CC1)c1ccc(F)cc1 (stereo not shown) [Example 73, 1-{1-[4-(4-fluorophenyl)-4-hydroxybutyl]piperidin-4-yl}indoline] | 34.9 | 7.2
26 | O=C(NCCN1CCC(N2CCc3ccccc32)CC1)c1ccc(F)cc1 [Example 75, 1-[1-(4-fluorobenzamido)ethylpiperidin-4-yl]indoline] | 3.6 | 30.3
27 | COc1ccc(CC(C)N2CCC(N3CCc4ccccc43)CC2)cc1OC (stereo not shown) [Example 76, 1-{1-[1-(3,4-dimethoxyphenyl)propan-2-yl]piperidin-4-yl}indoline] | 43.2 | > 200
28 | c1ccc2c(c1)CCN2C1CCN(CCCOc2ccc3c(c2)OCO3)CC1 [Example 78, 1-{1-[3-(3,4-methylenedioxypheoxy)propyl]piperidin-4-yl}indoline] | 2.4 | 29.6
29 | Fc1ccc(CCN2CCC(N3CCc4ccc(Cl)cc43)CC2)cc1 [Example 102, 1-[1-(4-fluorophenethyl)piperidin-4-yl]-6-chloroindoline] | 2.7 | 28.4
30 | Oc1ccc2c(c1)N(C1CCN(CCc3ccc(F)cc3)CC1)CC2 [Example 104, 1-[1-(4-fluorophenethyl)piperidin-4-yl]-6-hydroxyindoline] | 2.4 | 6
31 | COc1cccc2c1CCN2C1CCN(CCc2ccc(F)cc2)CC1 [Example 105, 1-[1-(4-fluorophenethyl)piperidin-4-yl]-4-methoxyindoline] | > 200 | 17.4
32 | COc1cccc2c1N(C1CCN(CCc3ccc(F)cc3)CC1)CC2 [Example 107, 1-[1-(4-fluorophenethyl)piperidin-4-yl]-7-methoxyindoline] | 7.7 | 1.7
33 | COc1ccc2c(c1OC)N(C1CCN(CCc3ccc(F)cc3)CC1)CC2 [Example 108, 1-[1-(4-fluorophenethyl)piperidin-4-yl]-6,7-dimethoxyindoline] | 172 | 2.2
34 | Nc1ccc2c(c1)N(C1CCN(CCc3ccc(F)cc3)CC1)CC2 [Example 110, 1-[1-(4-fluorophenethyl)piperidin-4-yl]-6-aminoindoline] | 23.3 | 16
35 | CNc1ccc2c(c1)N(C1CCN(CCc3ccc(F)cc3)CC1)CC2 [Example 111, 1-[1-(4-fluorophenethyl)piperidin-4-yl]-6-methylaminoindoline] | 5.5 | 74.2

From patent US6579881B2 (Eisai Co., Ltd., priority 1997, dated 2003)
